# Source: patent US20130096160A1, “ARYLTHIAZOLYL PIPERIDINES AND RELATED COMPOUNDS AS MODULATORS OF SURVIVAL MOTOR NEURON (SMN) PROTEIN PRODUCTION” (Secretary, Department of Health and Human Services, priority 2010, published 2013)
# What was measured:
# SMN2-luciferase reporter = SMN2-luciferase reporter qHTS assay; assay type: cell-based, human; parameters: key to Curve Class: A curve class of 1.1 is a full agonist/antagonist; a curve class of 4 indicates the compound is inactive; details: for Curve Class: agonist/antagonist character of the concentration-response, lower values = more significant concentration-response; for Increased SMN2 activity: percent increase (or decrease) in SMN2 levels compared to control in which no test compound is added
# How it was run: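 SMN2 exon-7 splicing firefly-luciferase reporter cell line, ~2000 cells/well in phenol-red-free DMEM with 10% serum, allowed to adhere 10–12 h, then exposed to compounds for 2 days at 37 C, 5% CO2. Seven-point five-fold dilution series (e.g. 50 μM to 3.2 nM), OneGlo luminescence read, curves fitted to Hill equation.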
# [1] = mouse, microsomes, 1 h, 1 μM, pH 7.4
# Protocol: The test agent is incubated at 1 μM in duplicate with mouse microsomes at 37° C. for 60 min. The reaction contains 0.3 mg/mL microsomal protein in 100 mM potassium phosphate, 2 mM NADPH, 3 mM MgCl2, pH 7.4. A control is run for each test agent omitting NADPH to detect NADPH-free degradation. At indicated times, an aliquot is removed from each experimental and control reaction and mixed with an equal volume of ice-cold Stop Solution (0.3% acetic acid in acetonitrile containing haloperidol, diclofenac, or other internal standard). Stopped reactions are incubated at least ten minutes at −20° C., and an additional volume of water is added.
# The samples are centrifuged to remove precipitated protein, and the supernatants are analyzed by LC/MS/MS, as described above, to quantitate the remaining parent. Data are reported as % remaining by dividing by the time zero concentration value.
# in vitro = in vitro ADME; details: human, Caco-2
# Protocol: CaCo-2 cells grown in tissue culture flasks are trypsinized, suspended in medium, and the suspensions are applied to wells of a collagen-coated BioCoat Cell Environment in 24-well format (BD Biosciences) at 24,500 cells per well. The cells are allowed to grow and differentiate for three weeks, feeding at 2-day intervals.
# For Apical to Basolateral (A->B) permeability, the test agent is added at 50 μM to the apical (A) side and amount of permeation is determined on the basolateral (B) side; for Basolateral to Apical (B>A) permeability, the test agent is added at 50 μM to the B side and the amount of permeation is determine on the A side. The A-side buffer contains 100 μM Lucifer yellow dye, in Transport Buffer (1.98 g/L glucose in 10 mM HEPES, 1× Hank's Balanced Salt Solution) pH 6.5, and the B-side buffer is Transport Buffer, pH 7.4. CaCo-2 cells are incubated with these buffers for 2 h., and the receiver side buffer is removed for analysis by liquid chromatography-mass spectrometry (LC/MS/MS).
# Additionally, several control compounds are tested in the identical assay.
# To verify that CaCo-2 cell monolayers are properly formed, aliquots of the cell buffers are analyzed by fluorescence to determine the transport of the impermeable dye Lucifer Yellow.
# Data are expressed as permeability (Papp): […]
# where dQ/dt is the rate of permeation, C0 is the initial concentration of test agent, and A is the area of the monolayer.
# In bidirectional permeability studies, the asymmetry index (AI) or efflux ratio is also calculated:
# An AI>1 indicated a potential substrate for PGP or other active transporters.
# Samples are analyzed by LC/MS/MS using either an Agilent 6410 mass spectrometer coupled with an Agilent 1200 high performance liquid chromatography (HPLC) and a CTC PAL chilled autosampler, all controlled by MassHunter software (Agilent), or an ABI2000 mass spectrometer coupled with an Agilent 1100 HPLC and a CTC PAL chilled autosampler, all controlled by Analyst software (ABI). After separation on a C18 reverse phase HPLC column (Agilent, Waters, or equivalent) using an acetonitrile-water gradient system, peaks are analyzed by mass spectrometry (MS) using electrospray ionization (ESI) in multiple reaction monitoring (MRM) mode.
# The signal is optimized for each compound by ESI positive or negative ionization mode. A MS2 selected ion monitoring (SIM) scan is used to optimize the precursor ion and a product ion analysis is used to identify the best fragment for analysis and to optimize the collision energy.
# human SMN protein = experiment: Western blot of SMN protein in SMA patient fibroblasts (3813); assay type: cell-based; details: 3813 fibroblasts, quantitative western blotting, FIG. 4; for SMN protein level versus dose (in words): different doses
# Protocol: Type I spinal muscular atrophy (SMA)-affected human primary fibroblasts (#GM03813) and carrier parents (#GM03814, parent and #GM03815, […]) are obtained live with low passage number from Coriell Cell Repositories. […] For detection of SMN protein in patient fibroblasts, 8,000 cells per cm^2 are plated 24 hours prior to drug addition. Fresh media and compound are added every 24 hours. After 72 hours, cells are harvested, washed with cold PBS, and lysed. Samples are subjected to polyacrylamide gel electrophoresis (PAGE). It is determined that 10 μg total protein per lane is within the linear range for immunoblot detection of SMN and alpha-tubulin. Western blots of the gel are probed for SMN with the 4B7 mouse monoclonal antibody (from the lab of Christian Lorson). A goat anti-mouse antibody (Santa Cruz Biotechnology/#sc-2005) conjugated to horseradish peroxidase (HRP) is used as the secondary antibody. Quantification of protein is performed by detecting chemiluminescence with a Fujifilm LAS-4000 Multifunctional Imaging System. […] We incubated a fibroblast cell line from a type I SMA patient (3813 cell line) with different doses of analogues and assessed the SMN protein level by quantitative western blotting (FIG. 4). We observed that analogue 8 m at concentration of 37 nanomolar increased the SMN protein level by 2-3 fold. […] This could be due with the intrinsic mechanism of action or to other causes, such us concentration dependent compound solubility.
# [2] = tested on: SMN positive foci or gems in the nucleus; experiment: Gem count in human type I SMA fibroblasts; assay type: cell-based; details: 3 days, FIG. 5; for number of gems versus dose (in words): 37 nM-3000 nM
# From the text: Furthermore, the increase in SMN protein production led us to explore whether the arylpiperidine analogues had effect of on the overall number of SMN positive foci or gems in the nucleus. This would corroborate that the increased protein amounts represent indeed functional SMN protein. SMN protein is predominately a cytoplasmic protein in the nucleous SMN which localized to in distinct punctuate bodies often referred to as gems (gemini of coiled [Cajal] bodies). There is a direct correlation between the number of gems and total SMN protein production in the cell. Gem counts are commonly used as another metric to score the amount total SMN protein expressed on a cell-to-cell basis. […] Only 3.3% of nuclei have gems in fibroblast cells from SMA type I patients (cell line 3813), while 24.8% of nuclei have gems in fibroblast from a carrier parent (3814 cell line). We treated human type I SMA fibroblasts with increasing doses (37 nM 3000 nM) of arylpiperidine analogues 8a, 8m, and 9a for 3 days and the number of gems per 100 nuclei were examined (FIG. 5). Analogue 8m treatment yielded more than 2 fold of increase of the number of the gems at low 37 nM dose.
compound,measurement,setting,value
"CN(C)c1cccc(-c2csc(N3CCC(C(N)=O)CC3)n2)c1 [Example 63, 1-(4-(3-(Dimethylamino)Phenyl)Thiazol-2-yl)Piperidine-4-Carboxamide]",Curve Class,SMN2-luciferase reporter,1.1
same,Increased SMN2 activity,SMN2-luciferase reporter,504%
same,Minus NADPH Parent remaining 1st,[1],69%
same,Minus NADPH Parent remaining 2nd,[1],66%
same,Minus NADPH Parent remaining mean,[1],67%
same,Plus NADPH Parent remaining 1st,[1],0%
same,Plus NADPH Parent remaining 2nd,[1],0%
same,Plus NADPH Parent remaining mean,[1],0%
"NC(=O)C1CCN(c2nc(-c3ccc4c(c3)OCCO4)cs2)CC1 [Example 48, 1-(4-(2,3-Dihydrobenzo[B][1,4]Dioxin-6-yl)Thiazol-2-yl)Piperidine-4-Carboxamide]",Curve Class,SMN2-luciferase reporter,1.1
same,Increased SMN2 activity,SMN2-luciferase reporter,459%
same,Minus NADPH Parent remaining 1st,[1],16%
same,Minus NADPH Parent remaining 2nd,[1],15%
same,Minus NADPH Parent remaining mean,[1],16%
same,Plus NADPH Parent remaining 1st,[1],1%
same,Plus NADPH Parent remaining 2nd,[1],0%
same,Plus NADPH Parent remaining mean,[1],1%
"CNC(=C[N+](=O)[O-])NCCSCc1ccc(CN(C)C)o1 [Ranitidine, ranitidine, reference compound]","Papp A→B at 2 h, 10 μM",in vitro,0.42 ×10⁻⁶ cm/s
"CC(C)Oc1cccc(-c2cnc(N3CCC(C(N)=O)CC3)s2)c1 [Example 123, 1-(5-(3-Isopropoxyphenyl)Thiazol-2-yl)Piperidine-4-Carboxamide]",Curve Class,SMN2-luciferase reporter,1.1
same,Increased SMN2 activity,SMN2-luciferase reporter,709.6%
same,SMN protein level versus dose (in words),human SMN protein,up-regulation of SMN protein at concentrations ranging between 37 nM and 333 nM
"O=C(O)C1CCN(c2nc(-c3ccc(Br)cc3)cs2)CC1 [Example 69, 1-(4-(4-Bromophenyl)Thiazol-2-yl)Piperidine-4-Carboxylic Acid]",Curve Class,SMN2-luciferase reporter,1.1
same,Increased SMN2 activity,SMN2-luciferase reporter,554.58%
same,Minus NADPH Parent remaining 1st,[1],90%
same,Minus NADPH Parent remaining 2nd,[1],101%
same,Minus NADPH Parent remaining mean,[1],95%
same,Plus NADPH Parent remaining 1st,[1],76%
same,Plus NADPH Parent remaining 2nd,[1],85%
same,Plus NADPH Parent remaining mean,[1],81%
"CC(=O)CC(c1ccccc1)c1c(O)c2ccccc2oc1=O (centres unmarked) [Warfarin, reference compound]","Papp A→B at 2 h, 10 μM",in vitro,45.8 ×10⁻⁶ cm/s
same,"Papp B→A at 2 h, 10 μM",in vitro,11.7 ×10⁻⁶ cm/s
"CSc1ccc(-c2cnc(N3CCC(C(N)=O)CC3)s2)cc1 [Example 134, 1-(5-(4-(Methylthio)Phenyl)Thiazol-2-yl)Piperidine-4-Carboxamide]",Curve Class,SMN2-luciferase reporter,1.1
same,Increased SMN2 activity,SMN2-luciferase reporter,576.1%
same,increase of the number of the gems,[2]; 37 nM,more than 2 fold
same,number of gems versus dose (in words),[2],"With the concentration increased, the numbers of gems was reduced"
same,increase of SMN protein level,human SMN protein; 37 nanomolar,2-3 fold
same,SMN protein level versus dose (in words),human SMN protein,decreased with the increasing of the drug concentration
"NC(=O)C1CCN(c2nc(-c3ccc(Br)cc3)cs2)CC1 [Example 23, 1-(4-(4-Bromophenyl)Thiazol-2-yl)Piperidine-4-Carboxamide]",Curve Class,SMN2-luciferase reporter,1.1
same,Increased SMN2 activity,SMN2-luciferase reporter,267.7%
same,Minus NADPH Parent remaining 1st,[1],68%
same,Minus NADPH Parent remaining 2nd,[1],51%
same,Minus NADPH Parent remaining mean,[1],59%
same,Plus NADPH Parent remaining 1st,[1],55%
same,Plus NADPH Parent remaining 2nd,[1],43%
same,Plus NADPH Parent remaining mean,[1],49%
"NC(=O)C1CCN(c2ncc(-c3ccc4c(c3)OCCCO4)s2)CC1 [Example 124, 1-(5-(3,4-Dihydro-2H-Benzo[B][1,4] Dioxepin-7-yl)Thiazol-2-yl)Piperidine-4-Carboxamide]",Curve Class,SMN2-luciferase reporter,1.1
same,Increased SMN2 activity,SMN2-luciferase reporter,370.5%
same,number of gems versus dose (in words),[2],didn't show any activity
"O=C(Nc1ccccc1)C1CCN(c2ncc(-c3ccc4c(c3)OCCCO4)s2)CC1 [Example 151, 1-(5-(3,4-Dihydro-2H-Benzo[B][1,4]Dioxepin-7-yl)Thiazol-2-yl)-N-Phenylpiperidine-4-Carboxamide]",Curve Class,SMN2-luciferase reporter,1.1
same,Increased SMN2 activity,SMN2-luciferase reporter,353%
same,SMN protein level versus dose (in words),human SMN protein,up-regulation of SMN protein at concentrations ranging between 37 nM and 333 nM
"O=C(O)C1CCN(c2ncc(-c3ccc4c(c3)OCCCO4)s2)CC1 [Example 148, 1-(5-(3,4-Dihydro-2H-Benzo[B][1,4]Dioxepin-7-yl)Thiazol-2-yl)Piperidine-4-Carboxylic Acid]",Curve Class,SMN2-luciferase reporter,1.1
same,Increased SMN2 activity,SMN2-luciferase reporter,325.6%
same,increase of the gem numbers,[2]; 37 nM to 1000 nM,80%
same,number of gems versus dose (in words),[2],slightly decreased at 3000 nM
same,SMN protein level versus dose (in words),human SMN protein,dose-dependent trend between 37 nM to 1 μM concentration and a decrease of protein level at 3 μM
"Cc1ccc(-c2cnc(N3CCC(C(N)=O)CC3)s2)cc1 [Example 119, 1-(5-P-Tolylthiazol-2-yl)Piperidine-4-Carboxamide]",Curve Class,SMN2-luciferase reporter,1.1
same,Increased SMN2 activity,SMN2-luciferase reporter,609.4%
same,SMN protein level versus dose (in words),human SMN protein,up-regulation of SMN protein at concentrations ranging between 37 nM and 333 nM
"CC(C)Oc1cccc(-c2csc(N3CCC(C(N)=O)CC3)n2)c1 [Example 107, 1-(4(3-Isopropoxyphenyl)Thiazol-2-yl)Piperidine-4-Carboxamide]",Curve Class,SMN2-luciferase reporter,1.1
same,Increased SMN2 activity,SMN2-luciferase reporter,605.6%
"COc1ccc(-c2csc(N3CCC(C(N)=O)CC3)n2)cc1OC [Example 83, 1-(4-(3,4-Dimethoxyphenyl)Thiazol-2-yl)Piperidine-4-Carboxamide]",Curve Class,SMN2-luciferase reporter,2.4
same,Increased SMN2 activity,SMN2-luciferase reporter,58.51%
